One assay has as its system TLR4 protein. The note with it: summary statement; no method described.
For assay [1], the system named is TLR4 mRNA in human intestinal tract epithelial cell strain HT-29. In kind it is cell-based.

For the compound `CCCC(=O)O` [butyric acid], in the assay on TLR4 protein, the “expression amount of TLR4 protein (result in words)” value is listed as “reduced”. The “TLR4 mRNA expression (result in words)” value in assay [1] is on record as “similarly reduced”.

The values above are taken from patent US20090010902A1 (priority 2007, published 2009).
